According to patent US20230219942A1, “COMPOUNDS COMPRISING A THREE RING CORE AS PD-1/PD-L1 BLOCKERS” (RELIVE THERAPEUTICS INC., priority 2020, published 2023):
Like-named read-outs stand apart in the source and are kept apart here.

Experiments:
PD-1/PD-L1 interaction = target: T1, PD-1/PD-L1 interaction (Homo sapiens, UniProt Q9NZQ7); assay: Cisbio PD-1/PD-L1 Homogeneous Time-Resolved Fluorescence (HTRF) binding assay; settings: read-out: Reported IC50
T1 construct: Tag1 or Tag2 (undisclosed kit tag); purchased Cisbio
Source text: The ability of compounds of the disclosure to inhibit the PD-1/PD-L1 interaction was investigated using a Cisbio PD-1/PD-L1 Homogeneous Time-Resolved Fluorescence (HTRF) binding assay (https://ca.cisbio.net/human-pd1-pd-l1-biochemical-binding-assay-44666).
With the assay, the interaction between PD-L1 and PD-1 is detected by using anti-Tag1 labeled with Europium (HTRF donor) and anti-Tag2 labeled with XL665 (HTRF acceptor). When the donor and acceptor antibodies are brought into close proximity due to PD-L1 and PD-1 binding, excitation of the donor antibody triggers fluorescence resonance energy transfer (FRET) towards the acceptor antibody, which in turn emits specifically at 665 nm. This specific signal is directly proportional to the extent of PD-1/PD-L1 interaction. Thus, a compound blocking the PD-1/PD-L1 interaction causes a reduction in the HTRF signal.
The assay was carried out in accordance with the product insert.

PD-1/PD-L1 = PD-1/PD-L1 (Homo sapiens, UniProt Q9NZQ7); settings: Table 11; known small molecule PD-1/PD-L1 blockers; cited from earlier work
PD-1 = PD-1 inhibition assay, literature value; read-out: IC50 previously reported; cited from earlier work
[1] = Table 10, * n = 7, median, P1 and P2 are different isomers
[2] = Table 10, same result in μM, P1 and P2 are different isomers

T1 sequence (Q9NZQ7 19-238 limits assumed): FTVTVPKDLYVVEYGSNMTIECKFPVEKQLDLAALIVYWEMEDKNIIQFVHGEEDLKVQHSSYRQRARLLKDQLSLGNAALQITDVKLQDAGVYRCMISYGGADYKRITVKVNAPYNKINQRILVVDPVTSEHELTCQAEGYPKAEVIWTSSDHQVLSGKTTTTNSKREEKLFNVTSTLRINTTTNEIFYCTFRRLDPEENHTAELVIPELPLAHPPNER
PD-1/PD-L1, sequence (Q9NZQ7 19-290): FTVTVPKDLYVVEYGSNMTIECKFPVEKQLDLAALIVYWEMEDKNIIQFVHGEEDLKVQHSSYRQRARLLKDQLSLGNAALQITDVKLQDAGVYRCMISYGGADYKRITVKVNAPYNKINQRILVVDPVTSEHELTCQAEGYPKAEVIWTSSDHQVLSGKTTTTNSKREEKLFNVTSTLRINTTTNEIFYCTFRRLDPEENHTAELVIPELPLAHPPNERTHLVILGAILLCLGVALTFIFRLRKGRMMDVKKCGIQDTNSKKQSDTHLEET

Structure (SMILES) | IC50 (PD-1/PD-L1 interaction; Table 9) | IC50 (PD-1/PD-L1 interaction; Table 9, same result in μM) | also measured
CC(=O)N1CCN(Cc2csc(NC[C@@H]3CCCN3Cc3ccc(Br)cc3)n2)CC1 [Compound A503] | 2.6 µM | 0.26 µM | 
O=C(c1ccccc1)N1CCN(Cc2nsc(NC[C@@H]3CCCN3Cc3ccc(Br)cc3)n2)CC1 [Compound B412] |  |  | IC50 (PD-1/PD-L1 interaction; [1]): 4.4 µM; IC50 (PD-1/PD-L1 interaction; [2]): 4.4 µM
COc1cc(C(=O)N2CCN(Cc3nsc(NC[C@@H]4CCCN4Cc4ccc(Cl)cc4)n3)CC2)cc(OC)c1OC [Compound B314] |  |  | IC50 (PD-1/PD-L1 interaction; [1]): 0.018 µM; IC50 (PD-1/PD-L1 interaction; [2]): 0.018 µM
COc1cccc(C(=O)N2CCN(Cc3csc(NC[C@@H]4CCCN4Cc4ccc(Br)cc4)n3)CC2)c1 [Compound A403] | 0.53 µM | 0.53 µM | 
COc1cc(CN2CCN(Cc3csc(NCC4CCCN4CC4CC4)n3)CC2)cc(OC)c1OC (centres unmarked) [Compound A506] | > 50 µM | > 50 µM | 
COc1cc(C(=O)N2CCN(Cc3cc(NC[C@@H]4CCCN4Cc4ccc(Br)cc4)sn3)CC2)cc(OC)c1OC [Compound B708] |  |  | IC50 (PD-1/PD-L1 interaction; [1]): 0.028 µM; IC50 (PD-1/PD-L1 interaction; [2]): 0.028 µM
COc1cc(C(=O)N2CCN(Cc3csc(NCC4CC(OCc5ccccc5)CN4Cc4ccc(Br)cc4)n3)CC2)cc(OC)c1OC (centres unmarked) [Compound 2678-80] |  |  | IC50 (PD-1/PD-L1 interaction; Table 8, Run: Pure): 0.5 µM
COc1cc(C(=O)N2CCN(Cc3csc(NC[C@@H]4CCCN4Cc4cccc(Br)c4)n3)CC2)cc(OC)c1OC [Compound A305] | 36 µM | 36 µM | 
O=C(c1ccco1)N1CCN(Cc2csc(NC[C@@H]3CCCN3CCCc3nc4ccccc4[nH]3)n2)CC1 [Compound 2678-72] |  |  | IC50 (PD-1/PD-L1 interaction; Table 8, Run: Pure (70% Pure)): 11 µM
COc1ccc(CN2CCC[C@H]2CNc2nc(CN3CCN(C(=O)c4cc(OC)c(OC)c(OC)c4)CC3)cs2)cc1 [Compound A307] | 9.2 µM | 9.2 µM | 
CS(=O)(=O)c1cncc(COc2cc(OCc3cccc(-c4cccc(-c5ccc6c(c5)C[C@@H](N)C6)c4Cl)c3Cl)c(Br)cc2CN2CCCC[C@H]2C(=O)O)c1 [GS-4224, Example A] |  |  | KD/IC50 (PD-1/PD-L1): 0.09 nM
COc1cc(C(=O)N2CCN(Cc3nccc(NC[C@@H]4CCCN4Cc4ccc(Br)cc4)n3)CC2)cc(OC)c1OC [Compound B709] |  |  | IC50 (PD-1/PD-L1 interaction; [1]): 8 µM; IC50 (PD-1/PD-L1 interaction; [2]): 8 µM
COc1cc(OCc2cccc(-c3ccccc3)c2C)cc(OC)c1CN1CCCCC1C(=O)O (centres unmarked) [Compound S7911] |  |  | IC50 (PD-1): 6 nM
COc1cc(C(=O)N2CCN(Cc3csc(NC[C@H]4CCCN4Cc4ccc(Br)cc4)n3)CC2)cc(OC)c1OC [Compound A706] | 13 µM | 13 µM | 
Cc1ccc(C(=O)N2CCN(Cc3nsc(NC[C@@H]4CCCN4Cc4ccc(Br)cc4)n3)CC2)cc1 [Compound B409] |  |  | IC50 (PD-1/PD-L1 interaction; [1]): 0.65 µM; IC50 (PD-1/PD-L1 interaction; [2]): 0.65 µM
COc1cc(CN2CCN(Cc3csc(NCC4CCCN4Cc4ccccc4)n3)CC2)cc(OC)c1OC (centres unmarked) [Compound A505] | > 50 µM | > 50 µM | 
COc1cc(C(=O)N2CCN(Cc3csc(NC[C@@H]4CCCN4Cc4nnc(C)s4)n3)CC2)cc(OC)c1OC [Compound A311] | > 50 µM | > 50 µM | 
COc1cc(C(=O)N2CCN(Cc3csc(NC[C@@H]4CCCN4Cc4ccc(C(F)F)cc4)n3)CC2)cc(OC)c1OC [Compound B315] | 0.353 µM | 0.35 µM | 
COc1ccc(CN2CCC[C@H]2CNc2nc(CN3CCN(C(=O)c4cnc(C)cn4)CC3)cs2)cc1OC [Compound 2678-53] |  |  | IC50 (PD-1/PD-L1 interaction; Table 8, Run: Pure): 53 µM
CC(Oc1ccccc1)C(=O)N1CCN(Cc2csc(NC[C@@H]3CCCN3Cc3ccc(Br)cc3)n2)CC1 (some centres unmarked) [Compound 2678-58] |  |  | IC50 (PD-1/PD-L1 interaction; Table 8, Run: Pure): 0.8 µM
O=C(c1ccc2c(c1)OCO2)N1CCN(Cc2csc(NC[C@@H]3CCCN3Cc3ccc(Br)cc3)n2)CC1 [Compound A404] | 0.88 µM | 0.88 µM | 
Cc1c(Nc2nc(C(F)F)nc3cc(CN4CC[C@](C)(O)C4)cnc23)cccc1-c1cccc(-c2nc3cc(CN4CCC(C(=O)O)CC4)cc(C#N)c3o2)c1C [INB086550] |  |  | KD/IC50 (PD-1/PD-L1): <10 nM
Cn1cc(C(=O)N2CCN(Cc3csc(NC[C@@H]4CCCN4Cc4ccc(Br)cc4)n3)CC2)ccc1=O [Compound B414] | > 5 µM | > 5 µM | 
COc1cc(C(=O)N2CCN(Cc3nsc(NC[C@@H]4CCCN4Cc4ccc(C(F)(F)F)cc4)n3)CC2)cc(OC)c1OC [Compound B317] |  |  | IC50 (PD-1/PD-L1 interaction; [1]): 0.018 µM; IC50 (PD-1/PD-L1 interaction; [2]): 0.018 µM
